Read-outs that look alike come from different tables or passages of the source.
Columns and labels:
NS5B protein = NS5B protein (Hepatitis C virus genotype 1b, UniProt P26663); experiment: biochemical; type: binding; conditions: for Kd: dissociation equilibrium constant, NS5B immobilized on CM5 chip, read-out: SPR on NS5B KD
Protocol: The SPR experiments were performed using a Biacore T200 optical biosensor (Biacore Life Sciences, GE Healthcare). The NS5B protein at 50 μg/ml prepared in buffer of 10 mM sodium acetate (pH 5.5) was immobilized by standard amine coupling to a CM5 biosensor chip. The compounds were injected for 60 s at a flow rate of 30 μL/min using in concentration series between 1 and 250 μM in running buffer (1 × PBS with 5% DMSO). The dissociation was monitored for 300 s. Raw data collected on an SPR biosensor were further processed to eliminate any artifacts such as nonspecific binding and discrepancies in buffer composition. All data processing and analysis was performed using the Biacore T200 Evaluation Software.

HCV NS5B protein = biological target: T1, HCV NS5B protein (Hepatitis C virus genotype 1b, UniProt P26663); experiment: biochemical; conditions: for IC50: in vitro enzyme activity, 2'-O-Me-CTP positive control, read-out: NS5B inhibition assay IC50
T1 construct: Purified HCV NS5B protein and HCV (-) 3’ T RNA template were obtained as described previously
T1 sequence (P26663 2420-3010): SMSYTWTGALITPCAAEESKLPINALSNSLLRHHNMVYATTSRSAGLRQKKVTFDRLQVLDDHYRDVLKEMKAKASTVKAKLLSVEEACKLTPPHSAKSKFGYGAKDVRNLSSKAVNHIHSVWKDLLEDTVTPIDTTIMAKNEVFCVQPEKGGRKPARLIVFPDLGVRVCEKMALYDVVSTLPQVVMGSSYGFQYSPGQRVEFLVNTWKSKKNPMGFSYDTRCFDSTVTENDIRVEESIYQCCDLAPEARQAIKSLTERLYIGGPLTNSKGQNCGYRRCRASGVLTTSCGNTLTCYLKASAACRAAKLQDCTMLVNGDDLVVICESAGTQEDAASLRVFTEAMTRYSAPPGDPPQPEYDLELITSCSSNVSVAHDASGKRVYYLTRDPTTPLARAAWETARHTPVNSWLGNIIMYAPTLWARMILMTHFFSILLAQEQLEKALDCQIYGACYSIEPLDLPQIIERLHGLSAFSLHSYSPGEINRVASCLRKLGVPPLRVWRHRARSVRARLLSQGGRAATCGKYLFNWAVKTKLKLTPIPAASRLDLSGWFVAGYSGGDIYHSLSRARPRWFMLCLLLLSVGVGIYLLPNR
Protocol: The inhibitory effects of the tested reagents on in vitro NS5B activity were determined by NS5B-catalyzed RNA synthesis assay as described previously. Purified HCV NS5B protein and HCV (-) 3’ T RNA template were obtained as described previously. The tested reagents were added at a variety of concentrations in 50 μl reaction mixture consisting of 20 mM HEPES (pH 8.0), 1.5 mM MnCl2, 100 mM ammonium acetate, 1 mM DTT, 500 μM GTP, 250 μM each of CTP, ATP and UTP, 40U of RNasin (Biostar, Canada), 2 μg/ml HCV (-) 3’ TRNA template and 300 ng purified NS5B protein. After 2 h at 30°C, the reaction was stopped by 100 mM EDTA and RNA was purified using the RNaid Kit (Qbiogene). To determine NS5B-catalyzed RNA synthesis, real-time RT-PCR was performed. cDNA was synthesized using AMV-reverse transcriptase (TAKARA, Japan) and the primer targeted to NS5B-catalyzed RNA product (5’-[…]-3’) and then digested with RNAase. PCR was carried out using RNA product–specific primers (forward, […], reverse 5’-[…]-3’, probe, 5’-[…]-3’) and TaqMan RT-PCR Kit according to the instruction. 50% inhibitory concentrations (IC50) were calculated using Statistical SPSS program version 11.5 by probit analysis of regression.

HCV (JFH-1, genotype 2a) [1] = experiment: microbe, parasite or virus in culture; type: cell-based, Hepatitis C virus; conditions: for EC50: luminescence reduced by 50% in Huh7.5.1 cells, mean of three experiments, read-out: Anti-HCV activity virus assay JFH1 EC50; for SI (selective index): ratio of CC50 to EC50
Excerpt: The HCV virus assay was constructed by using the method developed as previously described, albeit with a slight modification. Briefly, the plasmid of pRluc-JFH-1 was constructed as following. Based on the plasmid of pJFH-1, as a gift from Apath,L.L.C., a humanized Renilla luciferase reporter gene was introduced into the C-terminus of NS5A in the JFH-1 genome. The plasmid phRluc-JFH-1 was made via digestion with the XbaI restriction enzyme and used as a template for RNA transcription. The virus transcripts were prepared in vitro by using the Ambion MEGAscript Kits, and then 10 μg of RNA was mixed with […] of Huh7.5.1, which was gifted by Jin Zhong (Institute Pasteur of Shanghai, Chinese Academy of Science), at a concentration of 1×10^7 cells/ml. After electroporation, the Huh7.5.1 cells containing virus transcripts were seeded in a 10-cm dish. After the cells were cultured for 4 days, the supernatant was collected and filtered to obtain the stock solution of the hRluc-JFH-1 virus. To obtain the virus titer, the virus stocks were diluted at a gradient of 1:10, and the Huh7.5.1 cells were incubated for 48h at 37°C. Then, the cells were harvested, and the luminescence was detected via the manufacturer’s protocol of the Renilla-Glo™ Luciferase Assay System (Promega).
Huh7.5.1 cells were seeded in 96-well plates at a density of 2 ×10^4 cells per well at 37°C overnight. All of the synthetic compounds were diluted with DMSO to 10 mM of stock solution. The initial concentration of compounds was 20 μM and then diluted at a gradient of 1:4 to concentrations ranging from 20 μM to 0.02 μM, containing 0.5% DMSO. For the HCVcc system, serial diluted compounds were mixed with a certain titer of HCVcc-hRluc-JFH1 virus, and the final concentration of HCVcc-hRluc-JFH1 virus titer was diluted to the numbers of relative luminescence units (RLU) ranging from 20,000 to 50,000 RLU and then added to the Huh7.5.1 cells. Then, the cells were cultured for 2 days at 37°Cand harvested. The luminescence was detected via the manufacturer’s protocol of the Renilla-Glo™ Luciferase Assay System. EC50 is the concentration of the compound at which the HCV luminescence level in the Huh7.5.1 cells is reduced by 50%. The values of EC50 were plotted by the GraphPad Prism 5 software.

[2] = Cell proliferation assay (WST-1); type: cell-based; conditions: human
Protocol: (§1) Huh7.5.1 cells were seeded in 96-well plates at a density of 2 × 10^4 cells per well overnight. Cells were incubated with serial diluted compounds for 48 h. The viability of Huh7.5.1 cells was determined in 96-well tissue culture plates using the cell proliferation reagent WST-1 (Roche), and absorbance (OD450 / reference OD630) was measured to detect the cytotoxicity of compounds according to the manufacturer’s protocol for the Cell Proliferation Reagent WST-1. CC50 is the concentration of the compound at which the cell growth was inhibited by 50%. The values of CC50 were plotted by the GraphPad Prism 5 software.

Huh7.5.1 cells = experiment: Cell proliferation assay (WST-1); type: cell-based
Protocol: as §1

HCV (JFH-1, genotype 2a) [3] = type: cell-based, Hepatitis C virus; conditions: at a concentration of 12.5 μM
NS5B polymerase = conditions: S2 Table, validation set of the RF model; ref DOI in column Reference (DOI); cited from earlier work
[4] = Huh7.5.1 cells, 48 h, WST-1, mean of three experiments, read-out: CC50

Chain of NS5B protein (P26663 2420-3010): as above

Compound: COc1cc(C(=O)NNS(=O)(=O)c2ccccc2)cc(OCc2ccccc2)c1OC [N1]
- Kd (NS5B protein): 62.9 µM
- IC50 (HCV NS5B protein): 3.63 µM
- EC50 (HCV (JFH-1, genotype 2a) [1]; Hepatitis C virus, Huh-7.5.1): > 12.5 µM
- CC50 at 48 h [2, 4]: > 100 µM

Compound: O=C(CSc1nc2ccccc2o1)Nc1cc(C(F)(F)F)cc(C(F)(F)F)c1 [N2]
- Kd (NS5B protein): 4.67 µM
- IC50 (HCV NS5B protein): 3 µM
- EC50 (HCV (JFH-1, genotype 2a) [1]; Hepatitis C virus, Huh-7.5.1): 1.61 µM
- SI (selective index) (HCV (JFH-1, genotype 2a) [1]): 32.1
- CC50 at 48 h [2, 4]: 51.3 µM
- cellular cytotoxicity (Huh7.5.1 cells; at a concentration of 12.5 μM): no cellular cytotoxicity
- HCV virus titers suppressed (HCV (JFH-1, genotype 2a) [3]): ~99%

Compound: Cc1ccc(O)c(NC(=O)COc2ccc3c(=O)c(-c4ccccc4)c(C)oc3c2)c1 [N4]
- Kd (NS5B protein): 123 µM
- IC50 (HCV NS5B protein): 2.01 µM
- EC50 (HCV (JFH-1, genotype 2a) [1]; Hepatitis C virus, Huh-7.5.1): > 12.5 µM
- CC50 at 48 h [2, 4]: > 100 µM

Compound: Cc1ccc(N(Cc2cc3cccc(C)c3nc2O)S(=O)(=O)c2ccccc2)c(C)c1 [N5, N-(2,4-dimethylphenyl)-N-((8-methyl-2-oxo-1,2-dihydroquinolin-3-yl)methyl)benzenesulfonamide]
- IC50 (HCV NS5B protein): 2.2 µM
- EC50 (HCV (JFH-1, genotype 2a) [1]; Hepatitis C virus, Huh-7.5.1): 10.9 µM
- CC50 at 48 h [2, 4]: > 100 µM

Compound: CC(C)OC(=O)[C@H](C)N[P@](=O)(OC[C@H]1O[C@@H](n2ccc(=O)[nH]c2=O)[C@](C)(F)[C@@H]1O)Oc1ccccc1 [PSI-7977, sofosbuvir, reference compound]
- EC50 (HCV (JFH-1, genotype 2a) [1]; Hepatitis C virus, Huh-7.5.1): 0.49 µM
- SI (selective index) (HCV (JFH-1, genotype 2a) [1]): >40.82
- CC50 at 48 h [2, 4]: > 20 µM

Compound: Nc1cc(Cn2c(C(=O)NS(=O)(=O)c3ccc(O)cc3)c(-c3ccc[nH]c3=O)c3cc(Cl)ccc32)ccn1 [compound 137]
- IC50 (NS5B polymerase): > 50 µM

Compound: CCC[C@H](NC(=O)[C@@H]1[C@H]2CCC[C@H]2CN1C(=O)[C@@H](NC(=O)[C@@H](NC(=O)c1cnccn1)C1CCCCC1)C(C)(C)C)C(=O)C(=O)NC1CC1 [telaprevir, reference compound]
- EC50 (HCV (JFH-1, genotype 2a) [1]; Hepatitis C virus, Huh-7.5.1): 0.02 µM
- SI (selective index) (HCV (JFH-1, genotype 2a) [1]): >500
- CC50 at 48 h [2]: > 10 µM

Compound: N-(8-fluoro-4-oxo-1,4-dihydroquinoline-3-carbonyl)-1,2-dimethyl-1H-imidazole-4-sulfonohydrazide [N3]
- Kd (NS5B protein): 86.1 µM
- pKD (NS5B protein; from SPR KD): 4.06
- pIC50 (HCV NS5B protein; from NS5B inhibition IC50): 4.62
- IC50 (HCV NS5B protein): 23.8 µM
- EC50 (HCV (JFH-1, genotype 2a) [1]): 21.3 µM
- CC50 (Huh7.5.1 cells): > 100 µM

Source: article PMC4742222, “Discovery of Novel Hepatitis C Virus NS5B Polymerase Inhibitors by Combining Random Forest, Multiple e-Pharmacophore Modeling and Docking” (PLoS ONE, 2016)
